Source: US10865208B2, “ATG7 inhibitors and the uses thereof” (Millennium Pharmaceuticals, Inc., priority 2016, dated 2020)

Target: recombinant human His-ATG7 enzyme (Homo sapiens (Human), UniProt O95352)
Assay: ATG7 Enzyme Assay (HTRF/FRET, ATG3-GST and Flag-Gabarap)
Assay type: biochemical
Settings: for inhibition at 0.111 µM: Concentration 0.111 μM; for inhibition at 0.111 µM / inhibition at 0.123 µM: read-out: Percent Inhibition; for inhibition at 0.123 µM: Concentration 0.123 μM
In short: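 0.15 nM His-ATG7 was reacted with 5 nM ATG3-GST, 5 nM Flag-Gabarap and 10 μM ATP in HEPES pH 7.5 containing MgCl2, GSH and TCEP for 105 min at 24° C, then stopped with EDTA/KF. Eu-anti-Flag and anti-GST-APC HTRF was read after 2 h. Results are given as single-concentration % inhibition or IC50.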

recombinant human His-ATG7 enzyme, sequence (O95352 whole entry): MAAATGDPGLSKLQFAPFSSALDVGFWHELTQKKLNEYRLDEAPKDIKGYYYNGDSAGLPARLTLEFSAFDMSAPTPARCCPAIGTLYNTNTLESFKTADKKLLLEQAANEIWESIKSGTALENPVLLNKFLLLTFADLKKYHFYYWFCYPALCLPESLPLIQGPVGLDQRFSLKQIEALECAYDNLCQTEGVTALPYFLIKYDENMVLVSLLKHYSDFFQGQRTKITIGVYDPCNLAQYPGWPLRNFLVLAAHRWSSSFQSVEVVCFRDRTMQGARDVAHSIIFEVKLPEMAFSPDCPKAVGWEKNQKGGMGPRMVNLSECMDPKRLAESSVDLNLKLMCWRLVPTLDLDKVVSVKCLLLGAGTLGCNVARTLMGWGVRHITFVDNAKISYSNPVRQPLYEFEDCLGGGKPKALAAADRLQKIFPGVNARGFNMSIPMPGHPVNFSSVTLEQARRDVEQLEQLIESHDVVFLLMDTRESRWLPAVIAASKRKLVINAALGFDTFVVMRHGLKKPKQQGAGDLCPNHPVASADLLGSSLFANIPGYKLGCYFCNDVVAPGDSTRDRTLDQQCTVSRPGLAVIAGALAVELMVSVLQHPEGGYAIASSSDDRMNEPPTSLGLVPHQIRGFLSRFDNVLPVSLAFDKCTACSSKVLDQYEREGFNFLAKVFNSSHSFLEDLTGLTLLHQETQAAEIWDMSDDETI

Structure (SMILES) | IC50 [nM] | inhibition at 0.111 µM [%] | inhibition at 0.123 µM [%]
Nc1ncnc2c1c(Sc1nccs1)nn2[C@H]1C[C@H](O)[C@@H](COS(N)(=O)=O)O1 [Compound I-174, {(2R,3S,5R)-5-[4-amino-3-(1,3-thiazol-2-ylsulfanyl)-1H-pyrazolo[3,4-d]pyrimidin-1-yl]-3-hydroxytetrahydrofuran-2-yl}methyl sulfamate] | 20 to 50 | 73 | –
Nc1ncnc2c1c(Sc1ccc3c(c1)OCO3)nn2[C@H]1C[C@H](O)[C@@H](COS(N)(=O)=O)O1 [Compound I-175, {(2R,3S,5R)-5-[4-amino-3-(1,3-benzodioxol-5-ylsulfanyl)-1H-pyrazolo[3,4-d]pyrimidin-1-yl]-3-hydroxytetrahydrofuran-2-yl}methyl sulfamate] | 50 to 100 | 66 | –
Cc1ccccc1Sc1nn([C@H]2C[C@H](O)[C@@H](COS(N)(=O)=O)O2)c2ncnc(N)c12 [Compound I-176, [(2R,3S,5R)-5-{4-amino-3-[(2-methylphenyl)sulfanyl]-1H-pyrazolo[3,4-d]pyrimidin-1-yl}-3-hydroxytetrahydrofuran-2-yl]methyl sulfamate] | 100 to 500 | 26 | –
CC(C)(C)Sc1nn([C@H]2C[C@H](O)[C@@H](COS(N)(=O)=O)O2)c2ncnc(N)c12 [Compound I-177, {(2R,3S,5R)-5-[4-amino-3-(tert-butylsulfanyl)-1H-pyrazolo[3,4-d]pyrimidin-1-yl]-3-hydroxytetrahydrofuran-2-yl}methyl sulfamate] | 20 to 50 | 70 | –
COc1ccc(Sc2nn([C@H]3C[C@H](O)[C@@H](COS(N)(=O)=O)O3)c3ncnc(N)c23)c(F)c1 [Compound I-178, [(2R,3S,5R)-5-{4-amino-3-[(2-fluoro-4-methoxyphenyl)sulfanyl]-1H-pyrazolo[3,4-d]pyrimidin-1-yl}-3-hydroxytetrahydrofuran-2-yl]methyl sulfamate] | 20 to 50 | 74 | –
Nc1ncnc2c1c(Sc1cccc(Cl)c1)nn2[C@H]1C[C@H](O)[C@@H](COS(N)(=O)=O)O1 [Compound I-179, [(2R,3S,5R)-5-{4-amino-3-[(3-chlorophenyl)sulfanyl]-1H-pyrazolo[3,4-d]pyrimidin-1-yl}-3-hydroxytetrahydrofuran-2-yl]methyl sulfamate] | 100 to 500 | 50 | –
CN(C)C(=O)CSc1nn([C@H]2C[C@H](O)[C@@H](COS(N)(=O)=O)O2)c2ncnc(N)c12 [Compound I-180, [(2R,3S,5R)-5-(4-amino-3-{[2-(dimethylamino)-2-oxoethyl]sulfanyl}-1H-pyrazolo[3,4-d]pyrimidin-1-yl)-3-hydroxytetrahydrofuran-2-yl]methyl sulfamate] | 100 to 500 | 29 | –
CC(C)Sc1nn([C@H]2C[C@H](O)[C@@H](COS(N)(=O)=O)O2)c2ncnc(N)c12 [Compound I-181, {(2R,3S,5R)-5-[4-amino-3-(isopropylsulfanyl)-1H-pyrazolo[3,4-d]pyrimidin-1-yl]-3-hydroxytetrahydrofuran-2-yl}methyl Sulfamate] | 20 to 50 | – | 81
Nc1ncnc2c1c(Sc1ccccc1F)nn2[C@H]1C[C@H](O)[C@@H](COS(N)(=O)=O)O1 [Compound I-182, [(2R,3S,5R)-5-{4-amino-3-[(2-fluorophenyl)sulfanyl]-1H-pyrazolo[3,4-d]pyrimidin-1-yl}-3-hydroxytetrahydrofuran-2-yl]methyl sulfamate] | 50 to 100 | 66 | –
Nc1ncnc2c1c(Sc1ccc3ccccc3n1)nn2[C@H]1C[C@H](O)[C@@H](COS(N)(=O)=O)O1 [Compound I-183, {(2R,3S,5R)-5-[4-amino-3-(quinolin-2-ylsulfanyl)-1H-pyrazolo[3,4-d]pyrimidin-1-yl]-3-hydroxytetrahydrofuran-2-yl}methyl sulfamate] | 100 to 500 | 28 | –
CC(C)Oc1ccc(Sc2nn([C@H]3C[C@H](O)[C@@H](COS(N)(=O)=O)O3)c3ncnc(N)c23)cc1 [Compound I-184, [(2R,3S,5R)-5-{4-amino-3-[(4-isopropoxyphenyl)sulfanyl]-1H-pyrazolo[3,4-d]pyrimidin-1-yl}-3-hydroxytetrahydrofuran-2-yl]methyl sulfamate] | 50 to 100 | 64 | –
CN1C(=O)Cc2cc(Sc3nn([C@H]4C[C@H](O)[C@@H](COS(N)(=O)=O)O4)c4ncnc(N)c34)ccc21 [Compound I-185, [(2R,3S,5R)-5-{4-amino-3-[(1-methyl-2-oxo-2,3-dihydro-1H-indol-5-yl)sulfanyl]-1H-pyrazolo[3,4-d]pyrimidin-1-yl}-3-hydroxytetrahydrofuran-2-yl]methyl sulfamate] | 50 to 100 | 56 | –
Nc1ncnc2c1c(Sc1ccc3c(c1)CCO3)nn2[C@H]1C[C@H](O)[C@@H](COS(N)(=O)=O)O1 [Compound I-186, {(2R,3S,5R)-5-[4-amino-3-(2,3-dihydro-1-benzofuran-5-ylsulfanyl)-1H-pyrazolo[3,4-d]pyrimidin-1-yl]-3-hydroxytetrahydrofuran-2-yl}methyl sulfamate] | 20 to 50 | 74 | –
Nc1ncnc2c1c(Sc1ccc(F)cc1)nn2[C@H]1C[C@H](O)[C@@H](COS(N)(=O)=O)O1 [Compound I-187, [(2R,3S,5R)-5-{4-amino-3-[(4-fluorophenyl)sulfanyl]-1H-pyrazolo[3,4-d]pyrimidin-1-yl}-3-hydroxytetrahydrofuran-2-yl]methyl sulfamate] | 50 to 100 | 56 | –
N#CCSc1nn([C@H]2C[C@H](O)[C@@H](COS(N)(=O)=O)O2)c2ncnc(N)c12 [Compound I-188, [(2R,3S,5R)-5-{4-amino-3-[(cyanomethyl)sulfanyl]-1H-pyrazolo[3,4-d]pyrimidin-1-yl}-3-hydroxytetrahydrofuran-2-yl]methyl sulfamate] | 100 to 500 | 37 | –
Nc1ncnc2c1c(Sc1ccc(Cl)cn1)nn2[C@H]1C[C@H](O)[C@@H](COS(N)(=O)=O)O1 [Compound I-189, [(2R,3S,5R)-5-{4-amino-3-[(5-chloropyridin-2-yl)sulfanyl]-1H-pyrazolo[3,4-d]pyrimidin-1-yl}-3-hydroxytetrahydrofuran-2-yl]methyl sulfamate] | 50 to 100 | 60 | –
COc1nn([C@H]2C[C@H](O)[C@@H](COS(N)(=O)=O)O2)c2ncnc(N)c12 [Compound I-190, [(2R,3S,5R)-5-(4-amino-3-methoxy-1H-pyrazolo[3,4-d]pyrimidin-1-yl)-3-hydroxytetrahydrofuran-2-yl]methyl Sulfamate] | 100 to 500 | – | 35
Cc1ccc(F)c(Sc2nn([C@H]3C[C@H](O)[C@@H](COS(N)(=O)=O)O3)c3ncnc(N)c23)c1 [Compound I-191, [(2R,3S,5R)-5-{4-amino-3-[(2-fluoro-5-methylphenyl)sulfanyl]-1H-pyrazolo[3,4-d]pyrimidin-1-yl}-3-hydroxytetrahydrofuran-2-yl]methyl sulfamate] | 50 to 100 | 63 | –
Nc1ncnc2c1c(I)nn2[C@H]1C[C@H](O)[C@@H](COS(N)(=O)=O)O1 [Compound I-192, [(2R,3S,5R)-5-(4-amino-3-iodo-1H-pyrazolo[3,4-d]pyrimidin-1-yl)-3-hydroxytetrahydrofuran-2-yl]methyl Sulfamate] | 50 to 100 | 61 | –
Cc1ccc(Sc2nn([C@H]3C[C@H](O)[C@@H](COS(N)(=O)=O)O3)c3ncnc(N)c23)cc1 [Compound I-193, [(2R,3S,5R)-5-{4-amino-3-[(4-methylphenyl)sulfanyl]-1H-pyrazolo[3,4-d]pyrimidin-1-yl}-3-hydroxytetrahydrofuran-2-yl]methyl sulfamate] | 100 to 500 | 46 | –
Nc1ncnc2c1c(Sc1ccccn1)nn2[C@H]1C[C@H](O)[C@@H](COS(N)(=O)=O)O1 [Compound I-194, {(2R,3S,5R)-5-[4-amino-3-(pyridin-2-ylsulfanyl)-1H-pyrazolo[3,4-d]pyrimidin-1-yl]-3-hydroxytetrahydrofuran-2-yl}methyl sulfamate] | 20 to 50 | 79 | –
Nc1ncnc2c1c(OC(F)F)nn2[C@H]1C[C@H](O)[C@@H](COS(N)(=O)=O)O1 [Compound I-195, {(2R,3S,5R)-5-[4-amino-3-(difluoromethoxy)-1H-pyrazolo[3,4-d]pyrimidin-1-yl]-3-hydroxytetrahydrofuran-2-yl}methyl Sulfamate] | 50 to 100 | 53 | –
Cc1ccc(Sc2nn([C@H]3C[C@H](O)[C@@H](COS(N)(=O)=O)O3)c3ncnc(N)c23)cc1C [Compound I-196, [(2R,3S,5R)-5-{4-amino-3-[(3,4-dimethylphenyl)sulfanyl]-1H-pyrazolo[3,4-d]pyrimidin-1-yl}-3-hydroxytetrahydrofuran-2-yl]methyl sulfamate] | 50 to 100 | 65 | –
Nc1ncnc2c1c(Sc1ccc(OC(F)(F)F)cc1)nn2[C@H]1C[C@H](O)[C@@H](COS(N)(=O)=O)O1 [Compound I-197, [(2R,3S,5R)-5-(4-amino-3-{[4-(trifluoromethoxy)phenyl]sulfanyl}-1H-pyrazolo[3,4-d]pyrimidin-1-yl)-3-hydroxytetrahydrofuran-2-yl]methyl sulfamate] | 100 to 500 | 45 | –
Nc1ncnc2c1c(Sc1cccc(OC(F)(F)F)c1)nn2[C@H]1C[C@H](O)[C@@H](COS(N)(=O)=O)O1 [Compound I-198, [(2R,3S,5R)-5-(4-amino-3-{[3-(trifluoromethoxy)phenyl]sulfanyl}-1H-pyrazolo[3,4-d]pyrimidin-1-yl)-3-hydroxytetrahydrofuran-2-yl]methyl sulfamate] | 100 to 500 | 42 | –
